The target in this experiment is T1, α2 β1 integrin (Homo sapiens, UniProt P05556+P17301).
T1 construct: Mg^++ -dependent adhesion of platelets, which use the α2 β1 integrin as a collagen specific receptor; endogenous in cells; host or cells: washed 51Cr-labelled platelets
As to the kind of experiment: Mg++-dependent adhesion of 51Cr-labeled platelets to type I collagen substrates, peptide inhibition. The experiment is classed as cell-based. As to the method: Platelet Adhesion-Platelets were washed and labeled with ^51 CrO4 as described in detail by Haverstick et al (22). Platelet adhesion to substrate composed of 0.5% BSA or 20 μg/ml of either type I collagen, laminin or fibronectin in polystryene dishes was determined as previously described in detail (7). Alternately, adhesion assays were carried out in 96 well microtiter dishes (Immulon II, Dynatech). In this case substrate coating- and adhesion assay volumes were adjusted to 100 μl and wash volumes were adjusted to 140 μl per well. Platelets were permitted to adhere for 60 min at a concentration of 1.3-- to 1.8×10^8 platelets/ml, then wash five times in adhesion assay buffer before being lysed with two […] aliquots of 2% SDS which were subsequently pooled and counted.
Peptide Inhibition--After labeling and washing, cells were resuspended at 2.6- to 3.6×10^5 /ml for platelets or 2×10^5 /ml for T47D cells. Aliquots were added to equal volumes of buffer containing appropriate concentrations of the peptides and divalent cations and preincubated for 15 min before being added to the adhesive substrates. Adhesion was quantitated as described above.

pIC50: −log10 of the molar value. Where no end group is shown, it is not given here.

T1 sequence (P17301 30-1181): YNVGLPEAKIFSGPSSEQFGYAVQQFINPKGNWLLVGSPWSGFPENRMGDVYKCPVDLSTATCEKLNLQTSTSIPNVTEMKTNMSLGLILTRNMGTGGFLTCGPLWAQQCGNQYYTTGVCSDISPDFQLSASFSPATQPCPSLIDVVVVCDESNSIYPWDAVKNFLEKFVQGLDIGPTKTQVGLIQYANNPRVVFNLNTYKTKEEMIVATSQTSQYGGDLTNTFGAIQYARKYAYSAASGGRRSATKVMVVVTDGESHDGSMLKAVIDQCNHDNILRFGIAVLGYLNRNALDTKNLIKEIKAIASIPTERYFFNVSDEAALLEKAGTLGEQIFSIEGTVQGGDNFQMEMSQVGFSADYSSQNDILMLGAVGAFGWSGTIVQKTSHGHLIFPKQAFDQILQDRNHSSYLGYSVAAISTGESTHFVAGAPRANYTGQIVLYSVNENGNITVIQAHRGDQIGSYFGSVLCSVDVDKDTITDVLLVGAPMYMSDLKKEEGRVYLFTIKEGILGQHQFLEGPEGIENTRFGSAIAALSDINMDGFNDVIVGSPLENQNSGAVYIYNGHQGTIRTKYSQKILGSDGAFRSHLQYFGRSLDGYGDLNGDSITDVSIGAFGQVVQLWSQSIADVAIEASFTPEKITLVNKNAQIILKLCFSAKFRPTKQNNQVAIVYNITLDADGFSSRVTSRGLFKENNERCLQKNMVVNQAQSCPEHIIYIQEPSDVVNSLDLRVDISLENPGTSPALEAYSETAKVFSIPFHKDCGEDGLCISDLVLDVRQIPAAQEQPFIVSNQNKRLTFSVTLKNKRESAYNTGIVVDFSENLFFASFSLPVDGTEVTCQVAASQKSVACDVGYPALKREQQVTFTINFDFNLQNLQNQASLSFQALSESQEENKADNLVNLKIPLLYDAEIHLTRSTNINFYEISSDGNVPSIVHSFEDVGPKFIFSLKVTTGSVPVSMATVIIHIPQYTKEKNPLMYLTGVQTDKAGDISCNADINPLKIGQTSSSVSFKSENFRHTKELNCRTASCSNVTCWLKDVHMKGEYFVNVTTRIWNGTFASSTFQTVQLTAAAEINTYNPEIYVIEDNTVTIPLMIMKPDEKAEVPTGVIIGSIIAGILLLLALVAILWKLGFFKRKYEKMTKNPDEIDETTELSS
T1 sequence (P05556 21-798): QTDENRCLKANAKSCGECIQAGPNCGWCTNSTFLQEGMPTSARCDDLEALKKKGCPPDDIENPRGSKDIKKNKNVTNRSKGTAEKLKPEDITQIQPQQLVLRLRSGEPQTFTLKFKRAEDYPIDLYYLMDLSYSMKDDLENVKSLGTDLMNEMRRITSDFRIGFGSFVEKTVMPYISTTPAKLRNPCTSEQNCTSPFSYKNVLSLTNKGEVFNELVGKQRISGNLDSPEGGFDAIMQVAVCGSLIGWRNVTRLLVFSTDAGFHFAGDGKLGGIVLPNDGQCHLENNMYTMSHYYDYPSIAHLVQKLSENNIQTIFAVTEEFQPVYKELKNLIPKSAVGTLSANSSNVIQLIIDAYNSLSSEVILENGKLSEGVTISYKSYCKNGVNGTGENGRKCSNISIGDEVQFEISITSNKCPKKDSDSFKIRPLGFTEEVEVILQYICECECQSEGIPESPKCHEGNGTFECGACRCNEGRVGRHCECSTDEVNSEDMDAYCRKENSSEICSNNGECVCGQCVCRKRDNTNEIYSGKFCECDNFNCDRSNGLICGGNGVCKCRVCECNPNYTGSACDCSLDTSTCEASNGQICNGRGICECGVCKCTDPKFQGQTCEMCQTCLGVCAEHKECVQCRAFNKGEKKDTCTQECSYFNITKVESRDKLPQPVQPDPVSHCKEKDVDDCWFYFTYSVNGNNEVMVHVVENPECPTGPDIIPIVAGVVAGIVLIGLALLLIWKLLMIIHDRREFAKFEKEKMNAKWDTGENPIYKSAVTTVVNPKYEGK

As for KDGEA-NH2 [KDGEA], the “Inhibitory activity in 1 mM Mg++ as percent of the activity observed in 6 mM Mg++” value (1 mM Mg++ versus 6 mM Mg++) worked out at 80%. For the same substance, where the note is “4 mM peptide, 2 mM Mg++”, the “Inhibition of Mg++-dependent platelet adhesion to collagen” value is reported as 80%.
Take “GPAGKDGEAGAQG-NH2 [peptide 430, GPAGKDGEAGAQG]”: where the note is “read-out: Half-maximal inhibition of Mg++-dependent platelet adhesion to collagen”, the pIC50 was 2.55.

Values taken from US5120830A, “Inhibitory peptides against α-2, β-1 mediated mg^++ dependent adhesion of platelets to collagen” (Washington University, priority 1990, dated 1992).
